# Measurements from patent publication US20020090619A1, “Methods for identifying mitochondrial divalent cation transporters” (priority 2000, published 2002).
# Assay: ETH 129 mediated cation transport into Quin-2 loaded POPC vesicles
# Format: biochemical
# Set-up: slope of log Ca2+ transport rate vs ΔΨ: unit not given here
# Conditions: for SlopeETH 129: log rate vs log ETH 129; for SlopeMe: log rate vs log cation concentration, FIG. 8B
# Description: Unilamellar vesicles loaded with Quin-2 were prepared from 1-palmitoyl-2-oleoyl-sn-glycerophosphatidylcholine (POPC) by freeze-thaw extrusion (Erdahl et al., 1994 Biophys. J. 66:1678; Erdahl et al., 1995 Biophys. J. 69:2350). The formation medium contained 5 mM Quin-2 (K+), 10 mM Hepes (K+), pH 7.00, and 100 mM KCl. A high internal K+ concentration was sought to allow the generation of membrane potentials of varying magnitude (see below). The preparations obtained were applied to Sephadex™ G-50 mini-columns (Pharmacia, Piscataway N.J.) and eluted by low speed centrifugation (Fry et al., 1978 Anal. Biochem. 90:809), to replace the external medium with a 10 mM Hepes buffer (Na+), pH 7.00 (Erdahl et al., 1994 Biophys. J. 66:1678; Erdahl et al., 1995 Biophys. J. 69:2350). The nominal concentration of POPC in final preparations was determined as lipid phosphorus (Bartlett, 1959 J Biol. Chem. 234:466) and was near 80 mM. The average diameter of these vesicles was 71 nm as determined by freeze-fracture electron microscopy (Chapman et al., 1990 Chem. Phys. Lipids 55:73). They contained entrapped K+ at approximately 125 mM, as determined by atomic absorption spectroscopy, and Quin-2 at approximately 6 mM. The latter value was determined by titrating lysed vesicles with a standard solution of CaCl2 and was about one third of the expected value (Erdahl et al., 1995 Bipohys. J. 69:3250). The high solute level in the formation medium reduced the efficiency of Quin-2 entrapment by reducing the effectiveness of a freeze-thaw driven solute concentrating mechanism that normally elevates the internal concentrations of solutes, relative to the external medium (Chapman et al., 1990 Chem. Phys. Lipids 55:73; Chapman et al., 1990 Chem. Phys. Lipids 60:201).
# POPC vesicles containing Quin-2 were utilized at a nominal phospholipid concentration of 1.0 mM, and at 25° C. The external medium contained polyvalent cation salts as described below, 100 mM NaCl, or mixtures of NaCl and KCl totaling […], and 10 mM Hepes, pH 7.00, unless otherwise noted. The medium pH was adjusted with NaOH that had been passed over Chelex 100 columns to remove contaminating cations (Erdahl et al., 1994 Biophys. J. 66:1678). In most cases an inside negative membrane electrical potential was present during the experiments. This was generated by the presence of 0.5 μM valinomycin (Val), which transports K+ out of the vesicles electrogenically (Erdahl et al., 1994 Biophys. J. 66:1678). The magnitude of the potential was controlled by varying the concentration ratio of Na+ to K+ in the external medium. A TPP+electrode was used to measure the potential (Broekemeier et al, 1998 Biochem. 37:13059), and thereby to verify that the calculated values were obtained. For these purposes the incubation medium contained 2.0 μM TPP.Cl and the entrapped volume was taken to be 2.02 μl/ml at a nominal POPC concentration of 1.0 mM (Chapman et al., 1990 Chem. Phys. Lipids 55:73).
# Val was omitted when an imposed membrane potential was not desired, or in some cases 5 μM of the protonophore carbonyl cyanide m-chlorophenylhydrazone (CCP) was present instead of Val.
# The transport of polyvalent cations was monitored by difference absorbance measurements which detected formation of the Quin-2:cation complex within the vesicle lumen. An Aminco DW2a spectrophotometer operated in the dual wavelength mode was employed. In addition, an Oriel No. 59800 band pass filter was used between the cuvette and the beam scrambler-photomultiplier assembly to prevent detection of the fluorescent light emitted by Quin-2. The sample wavelength for all cations was 264 nm. The reference wavelengths were at an isosbestic point in the Quin-2/Quin-2:cation complex difference spectrum of interest. These wavelengths varied slightly from cation to cation, as previously described (Erdahl et al., 1996 Biochem. 35:13817). […]
# [1] = 5.0 μM ETH 129, 30 μM CaCl2, Val, FIG. 3B
smiles,measurement,setting,value
O=C(COCC(=O)N(C1CCCCC1)C1CCCCC1)N(C1CCCCC1)C1CCCCC1 [ETH 129],slope of log rate vs. log Ca2+ concentration,"5.0 μM ETH 129, 0.5 μM Val, FIG. 7B",0.7
same,Ca2+ transport rate at zero potential (extrapolated),[1],0.41 nM/s
same,slope of log Ca2+ transport rate vs ΔΨ,[1],0.12
same,Ca2+ transport rate when CCP was used to eliminate an opposing potential,"5.0 μM ETH 129, 100 μM CaCl2, 5.0 μM CCP, FIG. 2C",0.88 nM/s
same,"Selectivity, Ca/Me","10^−2.0 M Cations, Me = Ca^2+",≡1.0
same,"Selectivity, Ca/Me","10^−2.0 M Cations, Me = Co^2+",53
same,"Selectivity, Ca/Me","10^−2.0 M Cations, Me = La^3+",5.1
same,"Selectivity, Ca/Me","10^−2.0 M Cations, Me = Mn^2+",59
same,"Selectivity, Ca/Me","10^−2.0 M Cations, Me = Ni^2+",55
same,"Selectivity, Ca/Me","10^−2.0 M Cations, Me = Sr^2+",2.8
same,"Selectivity, Ca/Me","10^−2.0 M Cations, Me = Zn^2+",2.3
same,"Selectivity, Ca/Me","10^−3 5 M Cations, Me = Ca^2+",≡1.0
same,"Selectivity, Ca/Me","10^−3 5 M Cations, Me = Co^2+",9.9
same,"Selectivity, Ca/Me","10^−3 5 M Cations, Me = La^3+",0.44
same,"Selectivity, Ca/Me","10^−3 5 M Cations, Me = Mn^2+",8.9
same,"Selectivity, Ca/Me","10^−3 5 M Cations, Me = Ni^2+",8.6
same,"Selectivity, Ca/Me","10^−3 5 M Cations, Me = Sr^2+",2.9
same,"Selectivity, Ca/Me","10^−3 5 M Cations, Me = Zn^2+",2.6
same,"Selectivity, Ca/Me","10^−5.0 M Cations, Me = Ca^2+",≡1.0
same,"Selectivity, Ca/Me","10^−5.0 M Cations, Me = Co^2+",1.6
same,"Selectivity, Ca/Me","10^−5.0 M Cations, Me = La^3+",0.14
same,"Selectivity, Ca/Me","10^−5.0 M Cations, Me = Mn^2+",1.1
same,"Selectivity, Ca/Me","10^−5.0 M Cations, Me = Ni^2+",1.1
same,"Selectivity, Ca/Me","10^−5.0 M Cations, Me = Sr^2+",1.0
same,"Selectivity, Ca/Me","10^−5.0 M Cations, Me = Zn^2+",0.9
same,slope of log rate vs. log ionophore concentration,"Ca2+ 30 μM, Val, FIG. 6B",2.8
same,selectivity sequence among the divalent cations,FIG. 8,Ca^2+>Zn^2+≈Sr^2+>Co2+≈Ni^2+≈Mn^2+
same,acceleration of Ca2+ transport per 59 mV increase in ΔΨ,"equivalent of the slope value, FIG. 3B",3.3 fold
same,SlopeETH 129,cation Ca^2+ 1.0 mM,1.5
same,SlopeETH 129,cation Co^2+ 1.0 mM,0.55
same,SlopeETH 129,cation Mn^2+ 1.0 mM,0.85
same,SlopeETH 129,cation Ni^2+ 1.0 mM,0.78
same,SlopeETH 129,cation Sr^2+ 1.0 mM,2.0
same,SlopeMe,cation Ca^2+,0.65
same,SlopeMe,cation Co^2+,0.11
same,SlopeMe,cation La^3+,nonlin
same,SlopeMe,cation Mn^2+,0.04
same,SlopeMe,cation Ni^2+,0.05
same,SlopeMe,cation Sr^2+,0.57
same,SlopeMe,cation Zn^2+,0.58
same,effect of ETH 129 alone on rate of Ca2+ permeation,"no Val or CCP, FIG. 2A",only a modest effect
